What was measured:
[1] = molecular target: Dual specificity calcium/calmodulin-dependent 3',5'-cyclic nucleotide phosphodiesterase 1A (Bos taurus, UniProt P14100); test: Optimum inhibitory concentration required to inhibit c-GMP specific phosphodiesterase 1 (PDE1) of bovine aorta
[2] = molecular target: T1, cGMP-specific 3',5'-cyclic phosphodiesterase (Bos taurus, UniProt Q28156); test: Optimum inhibitory concentration required to inhibit c-GMP specific Phosphodiesterase 5 (PDE5) of bovine lung
[3] = molecular target: T2, Phosphodiesterase 3 (Homo sapiens, UniProt Q14432+Q13370); test: Optimum inhibitory concentration required to inhibit […] (PDE3); format: protein assay
[4] = molecular target: T1, cGMP-specific 3',5'-cyclic phosphodiesterase; test: Inhibition of c-GMP specific phosphodiesterase PDE5 of bovine lung
[5] = molecular target: T2, Phosphodiesterase 3; test: Inhibition of cGMP-inhibited phosphodiesterase 3 (PDE3); format: protein assay

Chain of Dual specificity calcium/calmodulin-dependent 3',5'-cyclic nucleotide phosphodiesterase 1A (P14100 whole entry): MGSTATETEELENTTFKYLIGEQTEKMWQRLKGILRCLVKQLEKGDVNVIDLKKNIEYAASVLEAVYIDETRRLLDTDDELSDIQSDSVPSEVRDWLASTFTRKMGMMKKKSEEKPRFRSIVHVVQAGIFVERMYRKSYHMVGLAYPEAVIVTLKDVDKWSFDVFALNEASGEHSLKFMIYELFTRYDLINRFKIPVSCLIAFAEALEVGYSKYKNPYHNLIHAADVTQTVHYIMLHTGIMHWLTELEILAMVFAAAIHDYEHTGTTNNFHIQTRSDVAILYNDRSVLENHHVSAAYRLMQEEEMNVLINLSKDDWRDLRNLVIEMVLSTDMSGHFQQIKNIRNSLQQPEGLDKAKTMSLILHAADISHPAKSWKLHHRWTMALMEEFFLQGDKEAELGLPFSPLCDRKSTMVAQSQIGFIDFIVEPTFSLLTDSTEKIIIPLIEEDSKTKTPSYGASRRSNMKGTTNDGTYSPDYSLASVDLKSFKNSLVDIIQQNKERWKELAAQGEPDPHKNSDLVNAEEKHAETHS

CCCCCCc1nc2c([nH]1)N1CC(C)(C)N=C1N(C)C2=O
IC50 [1]: 25 nM | IC50 [2]: 8 nM | IC50 [3]: 28000 nM

CCCCCCc1nc2c([nH]1)N1C(=N[C@@H]3CCC[C@@H]31)N(C)C2=O
IC50 [1]: 36 nM | IC50 [3]: 12000 nM

CC(C)CCc1nc2c([nH]1)N1C[C@@H](C(C)C)N=C1N(C)C2=O
IC50 [1]: 15 nM | IC50 [2]: 22 nM | IC50 [3]: 40000 nM

CCCCCCCc1nc2c([nH]1)N1C(=N[C@@H]3CCC[C@@H]31)N(C)C2=O
IC50 [1]: 160 nM | IC50 [2]: 30 nM | IC50 [3]: 7000 nM

CC(C)CCCc1nc2c([nH]1)N1C[C@@H](C(C)C)N=C1N(C)C2=O
IC50 [1]: 12 nM | IC50 [2]: 6 nM | IC50 [3]: 65000 nM

CCCCc1nc2c([nH]1)N1C(=N[C@@H]3CCC[C@@H]31)N(C)C2=O
IC50 [1]: 110 nM | IC50 [2]: 140 nM | IC50 [3]: 38000 nM

CCC(CC)c1nc2c([nH]1)N1C(=N[C@@H]3CCC[C@@H]31)N(C)C2=O
IC50 [1]: 150 nM | IC50 [2]: 1400 nM | IC50 [3]: 150000 nM

CCCCCc1nc2c([nH]1)N1C(=N[C@@H]3CCC[C@@H]31)N(C)C2=O
IC50 [1]: 31 nM | IC50 [2]: 40 nM | IC50 [3]: 20000 nM

CCc1nc2c([nH]1)N1C(=N[C@@H]3CCC[C@@H]31)N(C)C2=O
IC50 [1]: 295 nM | IC50 [2]: 1200 nM | IC50 [3]: 150000 nM

Cc1nc2c([nH]1)C(=O)N(C)C1=N[C@@H]3CCC[C@@H]3N12
IC50 [1]: 1250 nM | IC50 [3]: > 300000 nM

CC(C)CCc1nc2c([nH]1)N1C(=N[C@@H]3CCC[C@@H]31)N(C)C2=O
IC50 [1]: 14 nM | IC50 [3]: 15000 nM

CCCc1nc2c([nH]1)N1C(=N[C@@H]3CCC[C@@H]31)N(C)C2=O
IC50 [1]: 350 nM | IC50 [3]: 80000 nM

CCCCCCc1nc2c([nH]1)N1CC3(CCCC3)N=C1N(C)C2=O
IC50 [1]: 14 nM | IC50 [2]: 11 nM | IC50 [3]: 15000 nM

CCCC(CCC)c1nc2c([nH]1)N1C(=N[C@@H]3CCC[C@@H]31)N(C)C2=O
IC50 [1]: 60 nM | IC50 [2]: 150 nM | IC50 [3]: 80000 nM

CCCCCCCCc1nc2c([nH]1)N1C(=N[C@@H]3CCC[C@@H]31)N(C)C2=O
IC50 [1]: 33 nM | IC50 [4]: 14 nM | IC50 [5]: 10000 nM

CCCCCCc1nc2c([nH]1)N1C[C@@H](C(C)C)N=C1N(C)C2=O
IC50 [1]: 25 nM | IC50 [2]: 5 nM | IC50 [3]: 18000 nM

CC(C)CCCc1nc2c([nH]1)N1C(=N[C@@H]3CCC[C@@H]31)N(C)C2=O
IC50 [1]: 6 nM | IC50 [2]: 10 nM | IC50 [3]: 35000 nM

— ChEMBL document CHEMBL1131701, “Synthesis and evaluation of potent and selective c-GMP phosphodiesterase inhibitors” (Bioorg Med Chem Lett, 1999)
